Results: patent US20220334133A1, “METHODS AND COMPOUNDS MODIFYING MITOCHONDRIAL FUNCTION” (The Board of Trusteesof the Leland Stanford Junior …, priority 2019, published 2022)
Where a name gives a salt, the structure may show the parent alone.

What was measured:
Type in all cases: cell-based, human
Miro1 [1] = experiment: Hit confirmation: immunocytochemistry and confocal microscopy of Miro1 in sporadic PD fibroblasts; details: DMSO instead of FCCP, with compound at highest screening concentration; sporadic PD line; at least 4 biological replicates
Description: Fibroblast cells were plated in 6-well plates (VWR, 10861-554) on coverslips (Fisher scientific, 22-293232) at 400.000 cells/well and plates were incubated at 37° C., 5% CO2 for 24 hrs. Next, newly ordered chemical compounds dissolved in DMSO were added at defined concentrations and plates were incubated at 37° C./5% CO2 for 10 hrs. Then, FCCP (final concentration of 20 μM, Carbonyl cyanide 4-(trifluoromethoxy)phenylhydrazone, Sigma-Aldrich, C2920) in cell media was added to defined wells and plates were incubated at 37° C., 5% CO2 for another 14 hrs. Cells were fixed with ice-cold 90% methanol (Fisher, 482332) for 20 min at −20° C., incubated with blocking buffer (10% Normal Goat Serum (NGS) (ThermoFisher, 50062Z), 0.5% BSA (ThermoFisher, BP1600), 0.2% Triton X-100 (ThermoFisher, T8787)) at 25° C. for 15 min and incubated with anti-Miro1 (Sigma-Aldrich, HPA0101687) at 1:100 in blocking buffer O/N at 4° C. Samples were washed three times with 1×PBS (ThermoFisher, 10010-049), incubated with goat anti-Rabbit IgG (H+L) Cross-Adsorbed, Alexa Fluor 488 (ThermoFisher, A11008) at 1:500 in blocking buffer at 25° C. for 2 hrs and washed again three times with lx PBS, and finally samples were mounted with ProLong™ Glass Antifade Mountant with NucBlue™ Stain (hard-setting, Thermofisher, P36983) on glass slides and allowed to cure O/N. Samples were imaged at 25° C. with a 20×/N.A.0.60 oil Plan-Apochromat objective on a Leica SPE laser scanning confocal microscope (JH Technologies), with identical imaging parameters among different genotypes. Images were processed with ImageJ (Ver. 1.48, NIH) using the Intensity Ratio Nuclei Cytoplasm Tool (http://dev.mri.cnrs.fr/projects/imagej-macros/wiki/Intensity_Ratio_Nuclei_Cytoplasm_Tool), and average cytoplasmic intensity (the average intensity in the cytoplasm area) was plotted.
To reduce experimental bias such as the freshness the compounds, experimental reagents, and imaging devices, the 14 hits identified in the high-throughput screening were verified individually . The 14 compounds were tested at their highest screening concentrations with at least 4 biological replicates, using the same sporadic PD line. […] Samples were imaged with identical settings under the confocal microscope, and negative controls without primary antibodies yielded no signals under the imaging settings.

Miro1 [2] = experiment: High-throughput screening assay for Miro1 reduction after FCCP (immunostaining, 384-well); details: 10 μM tested
Description: Human dermal primary fibroblasts isolated from a PD patient (ND33424) and a healthy control (ND36091) were cultured in cell media DMEM (ThermoFisher, 11995-065) supplemented with 10% fetal bovine serum (Gemini Bio-Products, 900-108, heat-inactivated), 1×Anti Anti (ThermoFisher, 15240096), and 1×GlutaMax (ThermoFisher, 35050061) maintained in a 37° C., 5% CO2 incubator with humidified atmosphere.
Fibroblast cells were plated onto clear-bottomed/black-walled 384-well plates (EK-30091, E&K Scientific, Santa Clara, Calif.) at 2000 cells/well with Matrix Wellmate dispenser (Thermo Scientific, Sunnyvale, Calif.) and plates were incubated at 37° C., 5% CO2 for 24 hrs. Next, chemical library compounds at defined concentrations, were added using fully automated liquid handling system Caliper Life Sciences Staccato system with a Twister II robot and a Sciclone ALH3000 (Caliper Life Sciences, Alameda, Calif. USA) integrated with a V&P Scientific pin tool and plates were incubated at 37° C./5% CO2 for 10 hrs. Then, 20 μM of FCCP (Carbonyl cyanide 4-(trifluoromethoxy)phenylhydrazone, Sigma-Aldrich, C2920) in cell media was added to defined wells and plates were incubated at 37° C., 5% CO2 for another 14 hr. Cells were fixed with ice-cold 90% methanol (Fisher, 482332) for 20 min at −20° C., incubated with blocking buffer (10% Normal Goat Serum (NGS) (ThermoFisher, 50062Z), 0.5% BSA (ThermoFisher, BP1600), 0.2% Triton X-100 (ThermoFisher, T8787) at room temperature (RT) for 15 min, and incubated with anti-Miro1 solution (Sigma-Aldrich, HPA0101687) at 1:100 in blocking buffer O/N at 4° C. Samples were washed with lx PBS (ThermoFisher, 10010-049) using a Plate Washer multivalve (Bio-Tek, ELx405UV), incubated with goat anti-Rabbit IgG (H+L) Cross-Adsorbed, Alexa Fluor 488 (ThermoFisher, A11008) at 1:500 in blocking buffer at 25° C. for 2 hrs and washed again with lx PBS, finally 1.0 μg/mL DAPI (ThermoFisher, D1306) in 1×PBS was added and plates were sealed using PlateLoc (Velocity11, 01867.001). All liquids were dispensed using the Multidrop 384 (Titertek, 5840200) unless otherwise stated. Fluorescent signals in plates were automatically imaged with ImageXpress Micro (Molecular Devices, IXMicro) and data were analyzed with MetaXpress Analysis (Molecular Devices). The percent of Miro1 reduction was calculated as % Positive Cells for Miro1/Median=[(Positive Cells Miro Integrated Intensity/All Nuclear Miro Integrated Intensity)−Plate Median of this same calculation (Median % Positive Miro/Nuclear Miro in Plate Data)]/[Plate Median of this same calculation (Median % Positive Miro/Nuclear Miro in Plate Data)]. Positive cells are cells having Miro1 immunostaining. […] Negative value indicates a reduction in Miro. Positive value indicates an increase in Miro. The screening and data analysis were carried out together with Stanford University High-Throughput Bioscience Centers (HTBC).
Drugs from the NIH Clinical collection library were screened at a defined 10 μM concentration with 4 biological repeats for each drug (377 compounds). […] These compounds are ranked in the order of the degree of Miro1 reduction (Table 1A). 12 small molecules that reduced Miro1 protein levels in 3 out of 4 biological repeats were ranked in order of degree of Miro1 reduction. […] These hits were ranked in order of the degree of Miro1 reduction, with the six compounds found to reduce Miro1 protein levels by 20% or more shown (Table 1A). Moreover, an additional 12 small molecules reduced Miro1 protein levels in 3 out of 4 biological repeats (Table 1B). We next screened the Biomol FDA library with 5-fold doses (1.25-2.5-5-10-20 μM) and in duplicate. […] We ranked these 3 hits in the order of the degree of Miro1 reduction (Table 1A). Taken together, we identified 14 actives (2.5% primary hit rate) and 12 potential actives.

Fibroblast cells = experiment: Toxicity observed in hit confirmation; details: highest screening concentration, sporadic PD fibroblast line
Description: Fibroblast cells were plated in 6-well plates (VWR, 10861-554) on coverslips (Fisher scientific, 22-293232) at 400.000 cells/well and plates were incubated at 37° C., 5% CO2 for 24 hrs. Next, newly ordered chemical compounds dissolved in DMSO were added at defined concentrations and plates were incubated at 37° C./5% CO2 for 10 hrs. Then, FCCP (final concentration of 20 μM, Carbonyl cyanide 4-(trifluoromethoxy)phenylhydrazone, Sigma-Aldrich, C2920) in cell media was added to defined wells and plates were incubated at 37° C., 5% CO2 for another 14 hrs. Cells were fixed with ice-cold 90% methanol (Fisher, 482332) for 20 min at −20° C., incubated with blocking buffer (10% Normal Goat Serum (NGS) (ThermoFisher, 50062Z), 0.5% BSA (ThermoFisher, BP1600), 0.2% Triton X-100 (ThermoFisher, T8787)) at 25° C. for 15 min and incubated with anti-Miro1 (Sigma-Aldrich, HPA0101687) at 1:100 in blocking buffer O/N at 4° C. […]

[3] = Table 1A hits, PD patient fibroblasts, following FCCP treatment (20 μM, 14 hr)
[4] = Table 1B additional small molecules (3 out of 4 biological repeats), following FCCP treatment

Row | SMILES | Basal Miro1 levels (without mitochondrial depolarization) (Miro1 [1]) | % Miro1 decrease in screen (Miro1 [2]; [3]) | % Miro1 decrease in screen (Miro1 [2]; [4]) | also measured
1 | COC(=O)C1=C(C)NC(C)=C(C(=O)OC2CCCN(Cc3ccccc3)C2)C1c1cccc([N+](=O)[O-])c1 (stereo not drawn) [Benidipine HCl] | no impact on basal Miro1 levels | A (Reduction of Miro levels by >30%) | – | –
2 | CN(C)CCC[C@@]1(c2ccc(F)cc2)OCc2cc(C#N)ccc21 [Escitalopram Oxalate] | already reduced Miro1 protein at baseline | A (Reduction of Miro levels by >30%) | – | –
3 | O=C(O)CCC(=O)c1ccc(-c2ccccc2)cc1 [Fenbufen] | – | – | – | Toxicity (Fibroblast cells): appeared toxic
4 | CC(C(=O)O)c1ccc(-c2ccccc2)c(F)c1 (stereo not drawn) [Flurbiprofen] | – | – | B (Reduction of Miro levels by >20% and less than 30%) | –
5 | C[N+]1(C)CCC(OC(=O)C(O)(c2ccccc2)C2CCCC2)C1 (stereo not drawn) [Glycopyrrolate] | – | B (Reduction of Miro levels by >20% and less than 30%) | – | –
6 | CN(CCCN1c2ccccc2CCc2ccccc21)CC(=O)c1ccc(Cl)cc1 [Lofepramine] | already reduced Miro1 protein at baseline | – | – | –
7 | CC(C(=O)O)c1ccc(CC2CCCC2=O)cc1 (stereo not drawn) [Loxoprofen] | – | – | B (Reduction of Miro levels by >20% and less than 30%) | –
8 | COc1ccc2[nH]c([S+]([O-])Cc3ncc(C)c(OC)c3C)nc2c1 (stereo not drawn) [Omeprazole] | – | – | C (Reduction of Miro by >10% and less than 20%) | –
9 | C[C@H]1COc2c(C3(N)CC3)c(F)cc3c(=O)c(C(=O)O)cn1c23 [Pazufloxacin] | – | – | B (Reduction of Miro levels by >20% and less than 30%) | –
10 | CNC(=O)Oc1ccc2c(c1)[C@]1(C)CCN(C)[C@@H]1N2C [Physostigmine] | – | B (Reduction of Miro levels by >20% and less than 30%) | – | –
11 | CC[C@H](C)C(=O)O[C@H]1C[C@H](O)C=C2C=C[C@H](C)[C@H](CC[C@@H](O)C[C@@H](O)CC(=O)O)[C@H]21 [Pravastatin Sodium] | already reduced Miro1 protein at baseline | – | – | –
12 | Cn1nnc2c(C(N)=O)ncn2c1=O [Temozolomide] | – | A (Reduction of Miro levels by >30%) | – | –
13 | COc1ccc(/C=C/C(=O)Nc2ccccc2C(=O)O)cc1OC [Tranilast] | – | B (Reduction of Miro levels by >20% and less than 30%) | – | –
